Several values for one entry are separate records, joined by “and”; a condition that tells them apart may be missing. Identical values can stand only once.
Tests used:
CYP2D6 = CYP2D6 (Homo sapiens, UniProt P10635); conditions: cited from earlier work
QTc interval [1] = conditions: cited from earlier work
QT interval = assay: QT prolongation following iloperidone in 174 individuals genotyped at SNP_A-2279707 (rs179407); assay type: in vivo, human; conditions: oral 24 mg/day B.I.D. for two weeks; for High QT, + test (number of individuals) / Low QT, + test (number of individuals): rs179407 genotype TT; for High QT, − test (number of individuals) / Low QT, − test (number of individuals): rs179407 genotype not TT; for Odds Ratio: rs179407 TT versus not TT
QTc interval [2] = assay: QTcF change following iloperidone or ziprasidone administration, by KCNQ1 and CYP2D6 genotype; assay type: in vivo, human; conditions: for QTcFmax Change: change from baseline
Method: The DNA variants in KCNQ1 noted above were examined for correlation with iloperidone-induced QT prolongation.
Individuals from an earlier study of CYP2D6 genotypes and a predisposition to QT prolongation were genotyped at each of the KCNQ1 SNPs above. 22 individuals had been given a dose of 8 mg of iloperidone b.i.d., 30 had been given 12 mg b.i.d., and 22 had been given 24 mg q.d.
The results were similar when ziprasidone was administered at a dosage of 80 mg b.i.d. The QTc changes for each genotype are shown below in Tables 4 and 5.
Tables 10 and 11 below show CYP2D6 metabolizer status against QTcFmax change from baseline for individuals having GG and non-GG genotypes, respectively, at the KCNQ1 79764 position SNP.
In order to assess the CYP2D6 component to such prolongation, QTc change was separately compared to the CYP2D6G1846A and CYP2D6C100T polymorphisms.
Tables 14 and 15 below show QTc changes in individuals grouped according to their KCNQ1 79764, CYP2D6G1846A, and CYP2D6C100T genotypes. […] Similarly, individuals who were GG at KCNQ1 79764 and had one or two mutant alleles at the CYP2D6 loci (i.e., AG or AA at CYP2D6G1846A and CT or TT at CYP2D6C100T) experienced the greatest QT prolongation.

QTc interval [3] = conditions: cited from earlier work; for QTc prolongation: comparison of several antipsychotics

Chain of CYP2D6 (P10635 whole entry): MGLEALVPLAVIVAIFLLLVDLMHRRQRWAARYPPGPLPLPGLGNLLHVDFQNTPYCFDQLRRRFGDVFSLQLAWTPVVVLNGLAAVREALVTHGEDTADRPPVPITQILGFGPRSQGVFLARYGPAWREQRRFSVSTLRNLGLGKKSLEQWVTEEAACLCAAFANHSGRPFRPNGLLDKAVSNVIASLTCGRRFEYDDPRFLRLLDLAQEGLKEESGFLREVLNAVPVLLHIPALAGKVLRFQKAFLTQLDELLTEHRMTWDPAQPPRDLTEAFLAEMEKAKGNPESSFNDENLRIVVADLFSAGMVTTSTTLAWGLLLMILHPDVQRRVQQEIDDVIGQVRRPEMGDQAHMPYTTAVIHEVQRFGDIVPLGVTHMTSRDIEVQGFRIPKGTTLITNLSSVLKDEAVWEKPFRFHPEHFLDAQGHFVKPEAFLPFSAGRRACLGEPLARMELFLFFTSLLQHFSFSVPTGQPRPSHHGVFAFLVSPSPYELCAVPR

Question: What does the source list for `COc1cc(C(C)=O)ccc1OCCCN1CCC(c2noc3cc(F)ccc23)CC1` [Iloperidone]?
Answer: metabolizing enzyme (CYP2D6): metabolized by CYP2D6; effect on the QTcF duration with metabolic inhibition (QTc interval [1]; adding an inhibitor of CYP2D6): increases the effect of iloperidone on the QTcF duration; effect on QTc duration (QTc interval [1]; in vivo): some effects on QTc duration; High QT, + test (number of individuals) (QT interval; threshold QT > 5 msec): 102; Low QT, + test (number of individuals) (QT interval; threshold QT > 5 msec): 47; High QT, − test (number of individuals) (QT interval; threshold QT > 5 msec): 15; Low QT, − test (number of individuals) (QT interval; threshold QT > 5 msec): 19; Odds Ratio (QT interval; threshold QT > 5 msec): 2.749; High QT, + test (number of individuals) (QT interval; threshold QT > 15 msec): 64; Low QT, + test (number of individuals) (QT interval; threshold QT > 15 msec): 85; High QT, − test (number of individuals) (QT interval; threshold QT > 15 msec): 9; Low QT, − test (number of individuals) (QT interval; threshold QT > 15 msec): 25; Odds Ratio (QT interval; threshold QT > 15 msec): 2.092; High QT, + test (number of individuals) (QT interval; threshold QT > 30 msec): 26; Low QT, + test (number of individuals) (QT interval; threshold QT > 30 msec): 123; High QT, − test (number of individuals) (QT interval; threshold QT > 30 msec): 2; Low QT, − test (number of individuals) (QT interval; threshold QT > 30 msec): 32; Odds Ratio (QT interval; threshold QT > 30 msec): 3.382; QTcFmax Change (QTc interval [2]; KCNQ1 79764 genotype GG, CYP2D6 metabolizer status Extensive): 16.4 ms; QTcFmax Change (QTc interval [2]; KCNQ1 79764 genotype GG, CYP2D6 metabolizer status Intermediate): 18.1 ms; QTcFmax Change (QTc interval [2]; KCNQ1 79764 genotype GG, CYP2D6 metabolizer status Poor): 33.6 ms; QTcFmax Change (QTc interval [2]; KCNQ1 79764 genotype Non-GG, CYP2D6 metabolizer status Extensive): 8.3 ms; QTcFmax Change (QTc interval [2]; KCNQ1 79764 genotype Non-GG, CYP2D6 metabolizer status Intermediate): 3.1 ms; QTcFmax Change (QTc interval [2]; KCNQ1 79764 genotype Non-GG, CYP2D6 metabolizer status Poor): 24.6 ms; QTcF change (QTc interval [2]; iloperidone 8 mg b.i.d., 12 mg b.i.d. or 24 mg q.d., KCNQ1 79764 SNP genotype CC): 10.38 ms; QTcF change (QTc interval [2]; iloperidone 8 mg b.i.d., 12 mg b.i.d. or 24 mg q.d., KCNQ1 79764 SNP genotype CG): 6.80 ms; QTcF change (QTc interval [2]; iloperidone 8 mg b.i.d., 12 mg b.i.d. or 24 mg q.d., KCNQ1 79764 SNP genotype GG): 17.58 ms; QTcF change (QTc interval [2]; iloperidone 8 mg b.i.d., 12 mg b.i.d. or 24 mg q.d., KCNQ1 79764 SNP genotype Non-GG): 7.83 ms; QTcF change (QTc interval [2]; iloperidone, CYP2D6C100T genotype CC): 10.8 ms; QTcF change (QTc interval [2]; iloperidone, CYP2D6C100T genotype CT): 16.9 ms; QTcF change (QTc interval [2]; iloperidone, CYP2D6C100T genotype Non-CC): 19.2 ms; QTcF change (QTc interval [2]; iloperidone, CYP2D6C100T genotype TT): 31.3 ms; QTcF change (QTc interval [2]; iloperidone, CYP2D6G1846A genotype AA): 41.6 ms; QTcF change (QTc interval [2]; iloperidone, CYP2D6G1846A genotype AG): 15.9 ms; QTcF change (QTc interval [2]; iloperidone, CYP2D6G1846A genotype GG): 11.1 ms; QTcF change (QTc interval [2]; iloperidone, CYP2D6G1846A genotype Non-GG): 18.5 ms; QTcF change (QTc interval [2]; iloperidone, KCNQ1 78927 position SNP genotype AA): 7.21 ms; QTcF change (QTc interval [2]; iloperidone, KCNQ1 78927 position SNP genotype AC): 9.19 ms; QTcF change (QTc interval [2]; iloperidone, KCNQ1 78927 position SNP genotype CC): 14.08 ms; QTcF change (QTc interval [2]; iloperidone, KCNQ1 78927 position SNP genotype Non-CC): 6.46 ms; QTcF change (QTc interval [2]; iloperidone, KCNQ1 79764 GG and CYP2D6C100T CC): 19.2 (n = 15) msec; QTcF change (QTc interval [2]; iloperidone, KCNQ1 79764 GG and CYP2D6C100T non-CC): 23.5 (n = 10) msec; QTcF change (QTc interval [2]; iloperidone, KCNQ1 79764 GG and CYP2D6G1846A GG): 19.5 (n = 15) msec; QTcF change (QTc interval [2]; iloperidone, KCNQ1 79764 GG and CYP2D6G1846A non-GG): 25.5 (n = 10) msec; average QTc change, GG genotype relative to non-GG genotype (QTc interval [2]; iloperidone, KCNQ1 79764 SNP): more than twice the change in individuals with a non-GG genotype; QTcF change (QTc interval [2]; iloperidone, KCNQ1 79764 non-GG and CYP2D6C100T CC): 7.4 (n = 35) msec; QTcF change (QTc interval [2]; iloperidone, KCNQ1 79764 non-GG and CYP2D6C100T non-CC): 12.6 (n = 7) msec; QTcF change (QTc interval [2]; iloperidone, KCNQ1 79764 non-GG and CYP2D6G1846A GG): 7.6 (n = 34) msec; QTcF change (QTc interval [2]; iloperidone, KCNQ1 79764 non-GG and CYP2D6G1846A non-GG): 9.6 (n = 6) msec; QTcF change (QTc interval [2]; iloperidone, KCNQ1 286414 position SNP genotype AA): 12.50 ms and 12.51 ms; QTcF change (QTc interval [2]; iloperidone, KCNQ1 286414 position SNP genotype AG): 3.15 ms; QTcF change (QTc interval [2]; iloperidone, KCNQ1 286414 position SNP genotype GG): 10.34 ms; QTcF change (QTc interval [2]; iloperidone, KCNQ1 286414 position SNP genotype Non-AA): 5.16 ms

Question: With `OCCOCCN1CCN(C2=Nc3ccccc3Sc3ccccc32)CC1` [Quetiapine] as the compound, how does the QTc prolongation (QTc interval [3]) read?
Answer: associated with a prolongation of the QTc interval

Question: Which QTc prolongation (QTc interval [3]) does the source give for `O=C1Cc2cc(CCN3CCN(c4nsc5ccccc45)CC3)c(Cl)cc2N1` [Ziprasidone, ziprasidone] here?
Answer: highest degree of QTc prolongation, followed by ziprasidone

Question: And the QTcF change (QTc interval [2]; ziprasidone 80 mg b.i.d., KCNQ1 79764 SNP genotype CC)?
Answer: 8.30 ms

Question: And the QTcF change (QTc interval [2]; ziprasidone 80 mg b.i.d., KCNQ1 79764 SNP genotype CG)?
Answer: 6.19 ms

Question: And the QTcF change (QTc interval [2]; ziprasidone 80 mg b.i.d., KCNQ1 79764 SNP genotype GG)?
Answer: 15.32 ms

Question: And the QTcF change (QTc interval [2]; ziprasidone 80 mg b.i.d., KCNQ1 79764 SNP genotype Non-GG)?
Answer: 6.75 ms

Question: With `O=C(CCCN1CCC(O)(c2ccc(Cl)cc2)CC1)c1ccc(F)cc1` [haloperidol] as the compound, how does the “increase in QTc with metabolic inhibition” value (QTc interval [3]; with metabolic inhibitors of the CYP450 isoenzyme responsible for the metabolism of each drug) read?
Answer: doubling of QTc

Question: For `Cc1cc2c(s1)Nc1ccccc1N=C2N1CCN(C)CC1` [olanzapine], which QTc prolongation (QTc interval [3]) is on record?
Answer: associated with a prolongation of the QTc interval

Question: For `Cc1nc2n(c(=O)c1CCN1CCC(c3noc4cc(F)ccc34)CC1)CCCC2` [risperidone], which QTc prolongation (QTc interval [3]) is on record?
Answer: associated with a prolongation of the QTc interval
